Assay [1] deals with biotinylated sheep anti-cortisol gamma globulin (anti-cortisol antibody). Nature of the assay: VITROS ECi chemiluminescence competitive immunoassay, cross-reactivity (50% displacement of HRP-labeled conjugate). The format is binding. The following applies: cortisol conc. displacing 50% / cross-reactant conc. displacing 50% x 100; for Percent Cross-Reactivity, HRP-RC Invention Label: HRP labeled reduced cortisol-3-CMO-BSA (HRP-RC) as label; for Percent Cross-Reactivity, HRP-NRC Comparative Label: comparative HRP labeled nonreduced cortisol conjugate (HRP-NRC) as label. The procedure: Evaluation of the HRP labeled reduced cortisol-3-CMO-BSA (hereinafter referred to as HRP-RC conjugate) was evaluated using an Ortho-Clinical Diagnostic VITROS ECi chemiluminesence-based assay methodology.
100 ng/mL reduced cortisol-3-CMO-BSA-HRP (or 20 ng/mL of a comparative HRP-cortisol conjugate label, which is not a conjugate label of the present invention, but which was carried through the same procedures as the label of the invention except for the reduction step)
1.5 μg/mL biotinylated sheep anti-cortisol gamma globulin
An aliquot (75 μL) of anti-cortisol biotinylated sheep antibody, 30 μL of sample, serum comprising cortisol or a steroid structurally similar to cortisol (below), and 75 μL of HRP-RC conjugate were added to an VITROS ECi sample container to which strepavidin had been prebound. The solution was incubated at 37° C. for 30 minutes, then washed using the above-indicated wash reagent.
A 200 μL aliquot of the above-indicated signal reagent solution (100 μL of part A and 100 μL of part B combined just prior to use) was then added to the sample container. The solution was incubated for 5 minutes at 37° C., and the chemiluminesence intensity was then determined.
The above method was used to determine the concentration of potential cross reactant (steroid that is structurally similar to cortisol: 11-deoxycortisol, prednisolone, corticosterone and cortisone) that displaced fifty percent of a fixed amount of a comparative HRP labeled cortisol conjugate (nonreduced cortisol, HRP-NRC) or HRP-RC conjugate bound to a fixed amount of anti-cortisol antibody.
Varied levels of the potential cross reactant were added to sample containers containing either the comparative labeled cortisol conjugate (nonreduced cortisol, HRP-NRC) or HRP-RC conjugate of the instant invention, as described above.
The concentration of cross reactant resulting in a light signal measurement corresponding to 50% of the maximum attainable (all conjugate displaced) was determined and used to calculate the percent cross reactivity as described below and whose results are listed in Table 1.
Percent cross-reactivity is defined as The concentration of cortisol that displaced 50% of the HRP-NRC comparative conjugate (or the HRP-RC conjugate) divided by the concentration of cross-reactant that displaced 50% of the HRP-NRC comparative conjugate (or the HRP-RC conjugate) multiplied by 100 as determined per the assay method described hereinabove.

The test system of the next assay is anti-cortisol antibody. The following applies: prior art commercial cortisol assays; cited from earlier work.

Each structure is given as a SMILES string.

Turning to `C[C@]12C[C@H](O)[C@H]3[C@@H](CCC4=CC(=O)CC[C@@]43C)[C@@H]1CC[C@@H]2C(=O)CO` [corticosterone], in assay [1], the “Percent Cross-Reactivity, HRP-RC Invention Label” value was determined as 3.3% and the “Percent Cross-Reactivity, HRP-NRC Comparative Label” value turned out to be 4.4%.

For the compound `C[C@]12CCC(=O)C=C1CC[C@@H]1[C@@H]2[C@@H](O)C[C@@]2(C)[C@H]1CC[C@]2(O)C(=O)CO` [cortisol], in assay [1], the “Percent Cross-Reactivity, HRP-RC Invention Label” value is reported as 100% and the “Percent Cross-Reactivity, HRP-NRC Comparative Label” value is 100%.

In the case of `C[C@]12CCC(=O)C=C1CC[C@@H]1[C@@H]2CC[C@@]2(C)[C@H]1CC[C@]2(O)C(=O)CO` [11-deoxycortisol], in assay [1], the “Percent Cross-Reactivity, HRP-RC Invention Label” value is 2.2% and the “Percent Cross-Reactivity, HRP-NRC Comparative Label” value came out at 28.4%. In the assay on anti-cortisol antibody, the “cross-reactivity in commercial cortisol assays” value is “greater than 10%”.

Consider `C[C@]12C=CC(=O)C=C1CC[C@@H]1[C@@H]2[C@@H](O)C[C@@]2(C)[C@H]1CC[C@]2(O)C(=O)CO` [prednisolone], for which, in assay [1], the “Percent Cross-Reactivity, HRP-RC Invention Label” value is recorded as 24.6% and the “Percent Cross-Reactivity, HRP-NRC Comparative Label” value came out at 34.8%.

In the case of `C[C@]12CCC(=O)C=C1CC[C@@H]1[C@@H]2C(=O)C[C@@]2(C)[C@H]1CC[C@]2(O)C(=O)CO` [cortisone], in assay [1], the “Percent Cross-Reactivity, HRP-RC Invention Label” value is 1.8% and the “Percent Cross-Reactivity, HRP-NRC Comparative Label” value is 5.5%.
